Results reported in ChEMBL document CHEMBL1140567, “2-Aryl benzimidazoles featuring alkyl-linked pendant alcohols and amines as inhibitors of checkpoint kinase Chk2” (Bioorg Med Chem Lett, 2007).
Values after ≈ are worked out from the molar mass of the structure shown.

Tests used:
[1] = Solubility in stimulated intestinal fluid at pH 7 after 3 days; format: physicochemical; conditions: simulated intestinal fluid
[2] = Solubility in stimulated gastric fluid at pH 2 umol after 3 days; format: physicochemical; conditions: simulated gastric fluid

solubility at 72 h [1] | solubility at 72 h [2] | Compound
3 µM (≈ 1.41 µg/mL) | 84 µM (≈ 39.4 µg/mL) | Cc1ccc(CN2CCC(CCOc3ccc(-c4nc5cc(C(N)=O)ccc5[nH]4)cc3)CC2)cc1
< 1 µM | > 400 µM | COc1ccc(CN2CCC(CCOc3ccc(-c4nc5cc(C(N)=O)ccc5[nH]4)cc3)CC2)cc1
15 µM (≈ 7.85 µg/mL) | 13 µM (≈ 6.81 µg/mL) | NC(=O)c1ccc2[nH]c(-c3ccc(OCCC4CCN(Cc5ccc(Cl)c(Cl)c5)CC4)cc3)nc2c1
2 µM (≈ 0.813 µg/mL) | 87 µM (≈ 35.4 µg/mL) | CC(=O)N1CCC(CCOc2ccc(-c3nc4cc(C(N)=O)ccc4[nH]3)cc2)CC1
> 400 µM | > 400 µM | NC(=O)c1ccc2[nH]c(-c3ccc(OCC4CCN(Cc5ccccc5)CC4)cc3)nc2c1
18 µM (≈ 8.43 µg/mL) | 28 µM (≈ 13.1 µg/mL) | NC(=O)c1ccc2[nH]c(-c3ccc(OCCC4CCCCN4C(=O)c4ccccc4)cc3)nc2c1 (stereo not given)
3 µM (≈ 1.41 µg/mL) | 3 µM (≈ 1.41 µg/mL) | NC(=O)c1ccc2[nH]c(-c3ccc(OCCC4CCN(C(=O)c5ccccc5)CC4)cc3)nc2c1
155 µM (≈ 70.5 µg/mL) | > 400 µM | NC(=O)c1ccc2[nH]c(-c3ccc(OCCC4CCCCN4Cc4ccccc4)cc3)nc2c1 (stereo not given)
267 µM (≈ 118 µg/mL) | > 400 µM | NC(=O)c1ccc2[nH]c(-c3ccc(OCC4CCCN(Cc5ccccc5)C4)cc3)nc2c1 (stereo not given)
115 µM (≈ 56.2 µg/mL) | > 400 µM | NC(=O)c1ccc2[nH]c(-c3ccc(OCCC4CCCCN4Cc4ccc(Cl)cc4)cc3)nc2c1 (stereo not given)
5 µM (≈ 2.27 µg/mL) | 110 µM (≈ 50 µg/mL) | NC(=O)c1ccc2[nH]c(-c3ccc(OCCC4CCN(Cc5ccccc5)CC4)cc3)nc2c1
2 µM (≈ 0.978 µg/mL) | 179 µM (≈ 87.5 µg/mL) | NC(=O)c1ccc2[nH]c(-c3ccc(OCCC4CCN(Cc5ccc(Cl)cc5)CC4)cc3)nc2c1

The next lines start with the compound.

Compound | solubility at 72 h [1] | solubility at 72 h [2]
NC(=O)c1ccc2[nH]c(-c3ccc(OCCN4CCCCC4)cc3)nc2c1 | > 400 µM | > 400 µM
CN(C)CCCOc1ccc(-c2nc3cc(C(N)=O)ccc3[nH]2)cc1 | > 400 µM | > 400 µM
NC(=O)c1ccc2[nH]c(-c3ccc(OCCCN4CCCCC4)cc3)nc2c1 | > 400 µM | > 400 µM
NC(=O)c1ccc2[nH]c(-c3ccc(OCC4CCNCC4)cc3)nc2c1 | > 400 µM | > 400 µM
Cc1ccc(CN2CCCCC2CCOc2ccc(-c3nc4cc(C(N)=O)ccc4[nH]3)cc2)cc1 (stereo not given) | 97 µM (≈ 45.5 µg/mL) | > 400 µM
NC(=O)c1ccc2[nH]c(-c3ccc(OCCCO)cc3)nc2c1 | 7 µM (≈ 2.18 µg/mL) | 185 µM (≈ 57.6 µg/mL)
COc1ccc(CN2CCCCC2CCOc2ccc(-c3nc4cc(C(N)=O)ccc4[nH]3)cc2)cc1 (stereo not given) | 84 µM (≈ 40.7 µg/mL) | > 400 µM
NC(=O)c1ccc2[nH]c(-c3ccc(OC4CCC(O)C4)cc3)nc2c1 (stereo not given) | 139 µM (≈ 46.9 µg/mL) | > 400 µM
NC(=O)c1ccc2[nH]c(-c3ccc(OCCC4CCCCN4Cc4ccc(Cl)c(Cl)c4)cc3)nc2c1 (stereo not given) | 229 µM (≈ 120 µg/mL) | 39 µM (≈ 20.4 µg/mL)
NC(=O)c1ccc2[nH]c(-c3ccc(OCCO)cc3)nc2c1 | > 400 µM | > 400 µM
NC(=O)c1ccc2[nH]c(-c3ccc(OC4CCCNC4)cc3)nc2c1 (stereo not given) | > 400 µM | > 400 µM
CC(=O)N1CCCCC1CCOc1ccc(-c2nc3cc(C(N)=O)ccc3[nH]2)cc1 (stereo not given) | 193 µM (≈ 78.5 µg/mL) | > 400 µM
CN1CCC(Oc2ccc(-c3nc4cc(C(N)=O)ccc4[nH]3)cc2)CC1 | > 400 µM | > 400 µM
